Assay results: DBAASP
Values after ≈ are worked out from the molar mass of the structure shown. Values joined by “and” are separate entries in the source; they are usually repeats but may differ in a detail not shown here. Equal entries are not always repeated.

Experiments:
Assay in all cases: ≥ marks a high value that may be exact or a test limit, other limits are often not marked, values filed in µg/mL are converted to µM
[1] = tested on: Candida albicans ATCC 90028
[2] = tested on: Pseudomonas aeruginosa ATCC 27853
[3] = tested on: Staphylococcus aureus ATCC 29213
[4] = tested on: Escherichia coli ATCC 25922
[5] = tested on: Staphylococcus epidermidis ATCC 12228
[6] = tested on: Salmonella typhimurium KCTC 1926
Escherichia coli = tested on: Escherichia coli
Pseudomonas aeruginosa = tested on: Pseudomonas aeruginosa
[7] = tested on: Staphylococcus aureus ATCC 25923
Staphylococcus aureus = tested on: Staphylococcus aureus

SMILES | MIC [2] [µM] | MIC [3] [µM] | MIC [4] | MIC (Escherichia coli) [µM] | other results
CC[C@H](C)[C@H](NC(=O)[C@H](CCCN=C(N)N)NC(=O)[C@H](CCC(N)=O)NC(=O)[C@H](C)NC(=O)[C@H](C)NC(=O)[C@H](CCCN=C(N)N)NC(=O)[C@@H](N)CCCCN)C(=O)N[C@@H](CCCCN)C(=O)N[C@@H](C)C(=O)N[C@@H](Cc1ccccc1)C(=O)N[C@@H](CC(C)C)C(=O)N[C@@H](CCCN=C(N)N)C(=O)O [KRAAQRIKAFLR] | 5 (≈ 7.29 µg/mL) | 10 (≈ 14.6 µg/mL) | 2.5 µM (≈ 3.64 µg/mL) |  | MIC [1]: ≥ 40 µM
CC[C@H](C)[C@H](N)C(=O)N[C@@H](Cc1c[nH]c2ccccc12)C(=O)N[C@@H](CCCN=C(N)N)C(=O)N[C@H](C(=O)N[C@@H](Cc1ccccc1)C(=O)N[C@@H](CCCN=C(N)N)C(=O)N[C@@H](CCCN=C(N)N)C(=O)N[C@H](C(=O)N[C@@H](Cc1ccccc1)C(=O)N[C@@H](CCCN=C(N)N)C(=O)N[C@H](C(=O)N[C@@H](Cc1ccccc1)C(N)=O)[C@@H](C)CC)[C@@H](C)CC)[C@@H](C)CC [IWRIFRRIFRIF] | 4 (≈ 6.89 µg/mL) | 1 (≈ 1.72 µg/mL) | 4 µM and 8 µM |  | MIC [5]: 2 µM (≈ 3.44 µg/mL)
CC[C@H](C)[C@H](NC(=O)[C@H](CCCCN)NC(=O)[C@H](CCCCN)NC(=O)[C@@H](N)CCC(N)=O)C(=O)N[C@@H](CCCN=C(N)N)C(=O)N[C@H](C(=O)N[C@@H](C)C(=O)N[C@@H](CC(C)C)C(=O)N[C@@H](CO)C(=O)N[C@@H](C)C(=O)O)C(C)C [QKKIRVALSA] | 14.4 (≈ 16 µg/mL) | > 57.5 | 14.4 µM (≈ 16 µg/mL) |  | 
CC[C@H](C)[C@H](NC(=O)[C@@H](NC(=O)[C@@H](NC(=O)[C@H](CCCN=C(N)N)NC(=O)[C@@H](NC(=O)[C@@H](NC(=O)[C@H](CC(C)C)NC(=O)[C@@H]1CCCN1C(=O)[C@H](Cc1c[nH]c2ccccc12)NC(=O)[C@@H](NC(=O)[C@H](CCCN=C(N)N)NC(=O)[C@H](CCCCN)NC(=O)[C@@H](NC(=O)[C@@H](N)CCCN=C(N)N)C(C)C)C(C)C)C(C)C)[C@@H](C)CC)[C@@H](C)O)C(C)C)C(=O)N[C@@H](C)C(=O)NCC(=O)N[C@@H](Cc1ccc(O)cc1)C(=O)N[C@@H](CC(N)=O)C(=O)N[C@@H](CC(C)C)C(=O)O [RVKRVWPLVIRTVIAGYNL] |  |  |  |  | MIC [6]: ≥ 32 µM
CC(C)C[C@H](NC(=O)[C@H](CCCCN)NC(=O)[C@H](CC(C)C)NC(=O)[C@H](CC(C)C)NC(=O)[C@H](CCCCN)NC(=O)[C@H](CCCCN)NC(=O)[C@H](Cc1cnc[nH]1)NC(=O)[C@H](CC(C)C)NC(=O)[C@H](CCCCN)NC(=O)[C@H](CC(C)C)NC(=O)[C@H](CC(C)C)NC(=O)[C@H](CCCCN)NC(=O)[C@H](CCCCN)NC(=O)[C@@H](N)CC(C)C)C(=O)N[C@@H](C)C(=O)NCC(=O)O [LKKLLKLHKKLLKLAG] |  | > 40 | 2.5 µM (≈ 4.61 µg/mL) |  | 
CC[C@H](C)[C@H](NC(=O)[C@H](CCCN=C(N)N)NC(=O)[C@H](CCC(N)=O)NC(=O)[C@H](CO)NC(=O)[C@@H](NC(=O)[C@H](CCCN=C(N)N)NC(=O)[C@H](CCCCN)NC(=O)[C@@H](N)Cc1ccccc1)[C@@H](C)CC)C(=O)N[C@@H](CCCCN)C(=O)N[C@@H](CC(=O)O)C(=O)N[C@@H](Cc1ccccc1)C(=O)N[C@@H](CC(C)C)C(=O)N[C@@H](CCCN=C(N)N)C(=O)O [FKRISQRIKDFLR] |  | > 40 | 5 µM (≈ 8.54 µg/mL) |  | 
CC[C@H](C)[C@H](NC(=O)CNC(=O)[C@H](CC(C)C)NC(=O)[C@@H](NC(=O)[C@@H](N)Cc1ccc(O)cc1)[C@@H](C)O)C(=O)N[C@@H](CCCCN)C(=O)N[C@H](C(=O)N[C@@H](CC(C)C)C(=O)N[C@@H](Cc1c[nH]c2ccccc12)C(=O)N[C@@H](CO)C(=O)N[C@@H](C)C(=O)N[C@@H](Cc1ccc(O)cc1)C(=O)N[C@@H](CCCCN)C(=O)N[C@@H](Cc1cnc[nH]1)C(=O)N[C@@H](CCCN=C(N)N)C(=O)N[C@@H](CCCCN)C(=O)N[C@H](C(=O)N[C@H](C(=O)N[C@@H](CCC(=O)O)C(=O)N[C@@H](CCCCN)C(=O)N[C@@H](CO)C(=O)N[C@@H](Cc1ccccc1)C(=O)N[C@@H](CC(N)=O)C(=O)N[C@@H](CCCCN)C(=O)NCC(=O)N[C@@H](Cc1ccccc1)C(=O)N[C@@H](Cc1ccc(O)cc1)C(=O)N[C@@H](Cc1cnc[nH]1)C(=O)O)[C@@H](C)CC)[C@@H](C)O)[C@@H](C)CC [YTLGIKILWSAYKHRKTIEKSFNKGFYH] |  |  |  |  | MIC [5]: 50 µM (≈ 172 µg/mL)
CC[C@H](C)[C@H](N)C(=O)N[C@@H](Cc1c[nH]c2ccccc12)C(=O)N[C@@H](CCCN=C(N)N)C(=O)N[C@H](C(=O)N[C@@H](Cc1ccccc1)C(=O)N[C@@H](CCCN=C(N)N)C(N)=O)[C@@H](C)CC [IWRIFR] | 128 (≈ 114 µg/mL) | 128 (≈ 114 µg/mL) | 128 µM (≈ 114 µg/mL) |  | MIC [5]: 64 µM (≈ 56.9 µg/mL)
CC(C)C[C@H](NC(=O)[C@H](C)NC(=O)[C@H](CC(C)C)NC(=O)[C@@H](N)CCCCN)C(=O)N[C@@H](CCCCN)C(=O)N[C@@H](C)C(=O)N[C@@H](C)C(=O)N[C@@H](C)C(=O)N[C@@H](CCCCN)C(=O)N[C@@H](C)C(=O)N[C@@H](Cc1c[nH]c2ccccc12)C(=O)N[C@@H](CCCCN)C(=O)N[C@@H](C)C(=O)N[C@@H](C)C(=O)N[C@@H](C)C(=O)N[C@@H](CCCCN)C(=O)N[C@@H](C)C(=O)N[C@@H](C)C(N)=O [KLALKAAAKAWKAAAKAA] |  |  |  | 91 (≈ 162 µg/mL) | MIC (Pseudomonas aeruginosa): > 91 µM; MIC (Staphylococcus aureus): > 91 µM

Second part, led by results:

MIC [2] [µM] | MIC [3] [µM] | MIC [4] | MIC (Escherichia coli) [µM] | SMILES | other results
2.03 (≈ 5 µg/mL) |  | 1.02 µM (≈ 2.5 µg/mL) | 0.359 (≈ 0.884 µg/mL) | CC[C@H](C)[C@H](NC(=O)CN)C(=O)NCC(=O)N[C@@H](C)C(=O)N[C@H](C(=O)N[C@@H](CC(C)C)C(=O)N[C@@H](CCCCN)C(=O)N[C@H](C(=O)N[C@@H](CC(C)C)C(=O)N[C@H](C(=O)N[C@H](C(=O)NCC(=O)N[C@@H](CC(C)C)C(=O)N1CCC[C@H]1C(=O)N[C@@H](C)C(=O)N[C@@H](CC(C)C)C(=O)N[C@H](C(=O)N[C@@H](CCCCN)C(=O)N[C@@H](CCCN=C(N)N)C(=O)N[C@@H](CCCCN)C(=O)N[C@@H](CCCN=C(N)N)C(=O)N[C@@H](CCC(N)=O)C(=O)N[C@@H](CCC(N)=O)C(=O)O)[C@@H](C)CC)[C@@H](C)O)[C@@H](C)O)C(C)C)C(C)C [GIGAVLKVLTTGLPALIKRKRQQ] | MIC (Pseudomonas aeruginosa): 1.44 µM (≈ 3.54 µg/mL); MIC [7]: 0.0508 µM (≈ 0.125 µg/mL)
 |  |  | 25 (≈ 65.4 µg/mL) | CC[C@H](C)[C@H](NC(=O)[C@H](CCCCN)NC(=O)[C@H](CC(C)C)NC(=O)[C@H](C)NC(=O)[C@H](C)NC(=O)[C@H](CCCCN)NC(=O)[C@H](CC(C)C)NC(=O)[C@H](C)NC(=O)[C@H](CCCCN)NC(=O)CNC(=O)[C@H](CC(C)C)NC(=O)[C@H](Cc1ccccc1)NC(=O)[C@H](CO)NC(=O)CNC(=O)[C@H](Cc1ccccc1)NC(=O)CN)C(=O)NCC(=O)N[C@@H](C)C(=O)N[C@@H](CC(N)=O)C(=O)N[C@H](C(=O)N[C@@H](CC(C)C)C(=O)NCC(=O)NCC(=O)N[C@@H](C)C(=O)N1CCC[C@H]1C(=O)N[C@@H](CCC(=O)O)C(=O)N[C@@H](CCC(N)=O)C(=O)O)C(C)C [GFGSFLGKALKAALKIGANVLGGAPEQ] | MIC (Staphylococcus aureus): 6 µM (≈ 15.7 µg/mL)
 | > 80 | > 80 µM |  | CC(=O)N[C@@H](CCCCN)C(=O)N[C@@H](CC(C)C)C(=O)N[C@@H](CC(C)C)C(=O)N[C@@H](CCCCN)C(=O)N[C@@H](CC(C)C)C(=O)N1CCC[C@H]1C(=O)N[C@@H](CCCCN)C(=O)N[C@@H](CCCCN)C(=O)N[C@@H](CC(C)C)C(=O)N[C@@H](CC(C)C)C(=O)N[C@@H](CCCCN)C(=O)N[C@@H](CC(C)C)C(=O)N[C@@H](CC(C)C)C(=O)N[C@@H](CCCCN)C(N)=O [KLLKLPKKLLKLLK] | 
5 (≈ 7.72 µg/mL) | 10 (≈ 15.4 µg/mL) | 5 µM (≈ 7.72 µg/mL) |  | CC[C@H](C)[C@H](NC(=O)[C@H](CCCN=C(N)N)NC(=O)[C@H](CCC(N)=O)NC(=O)[C@@H](NC(=O)[C@@H](NC(=O)[C@H](CCCN=C(N)N)NC(=O)[C@@H](N)CCCCN)[C@@H](C)CC)C(C)C)C(=O)N[C@@H](CCCCN)C(=O)N[C@@H](CC(=O)O)C(=O)N[C@@H](Cc1ccccc1)C(=O)N[C@@H](CC(C)C)C(=O)N[C@@H](CCCCN)C(=O)O [KRIVQRIKDFLK] | MIC [1]: 10 µM (≈ 15.4 µg/mL)
 |  |  | 2.3 (≈ 5.93 µg/mL) | CC[C@H](C)[C@H](NC(=O)CN)C(=O)NCC(=O)N[C@@H](CCCCN)C(=O)N[C@@H](Cc1ccccc1)C(=O)N[C@H](C(=O)N[C@@H](Cc1cnc[nH]1)C(=O)N[C@@H](CO)C(=O)N[C@H](C(=O)N[C@@H](CCCCN)C(=O)N[C@@H](CCCCN)C(=O)N[C@@H](Cc1c[nH]c2ccccc12)C(=O)NCC(=O)N[C@@H](CCCCN)C(=O)N[C@H](C(=O)N[C@@H](Cc1ccccc1)C(=O)N[C@H](C(=O)NCC(=O)N[C@@H](CCC(=O)O)C(=O)N[C@H](C(=O)N[C@@H](CCSC)C(=O)N[C@@H](CC(N)=O)C(=O)N[C@@H](CO)C(N)=O)[C@@H](C)CC)[C@@H](C)CC)[C@@H](C)O)C(C)C)[C@@H](C)CC [GIGKFIHSVKKWGKTFIGEIMNS] | MIC (Pseudomonas aeruginosa): 18 µM (≈ 46.4 µg/mL); MIC (Staphylococcus aureus): 18 µM (≈ 46.4 µg/mL)
 |  |  | 2.7 (≈ 6.91 µg/mL) | CC[C@H](C)[C@H](N)C(=O)N[C@H](C(=O)N[C@@H](CO)C(=O)N[C@H](C(=O)N[C@H](C(=O)NCC(=O)N[C@@H](CCCCN)C(=O)N[C@@H](CC(C)C)C(=O)N[C@H](C(=O)N[C@@H](CCCCN)C(=O)N[C@@H](Cc1c[nH]c2ccccc12)C(=O)N[C@H](C(=O)N[C@H](C(=O)N[C@@H](CCCCN)C(=O)N[C@H](C(=O)N[C@H](C(=O)N[C@@H](CC(N)=O)C(=O)N[C@@H](CCCCN)C(=O)N[C@@H](Cc1ccccc1)C(=O)N[C@H](C(=O)N[C@@H](CCCCN)C(=O)N[C@@H](CCCCN)C(=O)O)[C@@H](C)O)C(C)C)[C@@H](C)O)[C@@H](C)CC)[C@@H](C)CC)C(C)C)[C@@H](C)CC)[C@@H](C)O)[C@@H](C)CC [IISTIGKLVKWIIKTVNKFTKK] | MIC (Staphylococcus aureus): 4.7 µM (≈ 12 µg/mL)
